Laboratory results taken from ChEMBL document CHEMBL1158237, “Jineol, a Cytotoxic Alkaloid from the Centipede Scolopendra subspinipes” (1996).
≈ marks a conversion by molar mass, not a printed value. Calls of active or inactive are those of the source. The rule behind the calls is not given here.

Tests used:
XF498 = assay: Cytotoxicity against human XF498 cells by SRB assay; assay type: functional; conditions: read-out: ED50 (the source's name)
HCT-15 = assay: Cytotoxicity against human HCT15 cells by SRB assay; assay type: functional; conditions: read-out: ED50 (the source's name)
A549 = assay: Cytotoxicity against human A549 cells by SRB assay; assay type: functional; conditions: read-out: ED50 (the source's name)
SK-OV-3 = assay: Cytotoxicity against human SKOV3 cells by SRB assay; assay type: functional; conditions: read-out: ED50 (the source's name)
SK-MEL-2 = assay: Cytotoxicity against human SK-MEL-2 cells by SRB assay; assay type: functional; conditions: read-out: ED50 (the source's name)
[1] = test system: Trichophyton mentagrophytes; assay: Antifungal activity against Trichophyton mentagrophytes by agar diffusion assay; assay type: functional, organism-based

SMILES	EC50 (XF498) [µg/mL]	EC50 (HCT-15) [µg/mL]	EC50 (A549) [µg/mL]	EC50 (SK-OV-3) [µg/mL]	EC50 (SK-MEL-2) [µg/mL]	Activity [1]
CC(=O)Oc1cnc2c(OC(C)=O)cccc2c1 [JINEOL ACETATE]	12	8	8	14	11	
Oc1cnc2c(O)cccc2c1 [JINEOL]	10 (≈ 62.1 µM)	1.9 (≈ 11.8 µM)	5.8 (≈ 36 µM)	4.5 (≈ 27.9 µM)	5.6 (≈ 34.7 µM)	Active
COc1cnc2c(OC)cccc2c1 [JINEOL METHYL ETHER]	29 (≈ 153 µM)	42 (≈ 222 µM)	38 (≈ 201 µM)	32 (≈ 169 µM)	21 (≈ 111 µM)	
COc1cccc2c1C(=O)c1c(O)c3c(c(O)c1C2=O)C[C@@](O)(C(=O)CO)C[C@@H]3O[C@H]1C[C@H](N)[C@H](O)[C@H](C)O1 [DOXORUBICIN]	0.1 (≈ 0.184 µM)	1.8 (≈ 3.31 µM)	0.05 (≈ 0.092 µM)	0.11 (≈ 0.202 µM)	0.05 (≈ 0.092 µM)	
